From patent US20210161997A1, “TREATING DISEASES VIA TARGETED MODULATION OF GENE SIGNALING NETWORKS” (Camp4 Therapeutics Corporation, priority 2018, published 2021)
Where a name gives a salt, the structure may show the parent alone. Read-outs that look alike come from different tables or passages of the source.

How the values were obtained:
Format in all cases: cell-based
APOL1 = assay: RNA-seq of APOL1 expression in compound-treated primary human hepatocytes; conditions: for mrna remaining at 10 µM: Homo sapiens, Hepatocyte, 16 h, read-out: APOL mRNA linear fold change
Protocol: (§1) Human hepatocytes were obtained from two donors from Massachusetts General Hospital, namely MGH54 and MGH63, and one donor from Lonza, namely HUM4111B. Cryopreserved hepatocytes were cultured in plating media for 16 hours, transferred to maintenance media for 4 hours. Cultured on serum-free media for 2 hours, then a compound was added. The hepatocytes were maintained on the serum-free media for 16 hours prior to gene expression analysis. Primary human hepatocytes were stored in the vapor phase of a liquid nitrogen freezer (about −130° C.).
(§2) Human hepatocytes cultured as described above were plated in 24-well format, adding 375,000 cells per well in a volume of 500 ul plating medium. Four hours before treatment, cells were washed with PBS and the medium was changed to either: fresh maintenance medium (complete) or modified maintenance medium.
(§3) Compound stocks were prepared at 1000× final concentration and added in a 2-step dilution to the medium to reduce risk of a compound precipitating out of solution when added to the cells, and to ensure reasonable pipetting volumes. One at a time, each compound was first diluted 10-fold in warm (about 37° C.) modified maintenance medium (initial dilution=ID), mixed by vortexing, and the ID was diluted 100-fold into the cell culture (e.g. 5.1 ul into 1 well of a 24-well plate containing 0.5 mL medium). The plate was mixed by carefully swirling and after all wells were treated and returned to the incubator overnight. If desired, separate plates/wells were treated with vehicle-only controls and/or positive controls. If using multi-well plates, controls were included on each plate. After about 18 hours, cells were harvested for further analysis, e.g., ChIP-seq, RNA-seq, ATAC-seq, etc.
(§4) This protocol is a modified version of the following protocols: MagMAX mirVana Total RNA Isolation Kit User Guide (Applied Biosystems #MAN0011131 Rev B.0), NEBNext Poly(A) mRNA Magnetic Isolation Module (E7490), and NEBNext Ultra Directional RNA Library Prep Kit for Illumina (E7420) (New England Biosystems #E74901).
(§5) The MagMAX mirVana kit instructions (the section titled “Isolate RNA from cells” on pages 14-17) were used for isolation of total RNA from cells in culture. Two hundred μl of Lysis Binding Mix was used per well of the multiwell plate containing adherent cells (usually a 24-well plate).
(§6) For mRNA isolation and library prep, the NEBNext Poly(A) mRNA Magnetic Isolation Module and Directional Prep kit was used. RNA isolated from cells above was quantified, and prepared in […] of each sample in 50 μl of nuclease-free water. This protocol may be run in microfuge tubes or in a 96-well plate.
(§7) All pass filter reads from each sample were mapped against the human genome (assembly GRCh38/GCA_000001405.15 “no alt” analysis set merged with hs38d1/GCA_000786075.2) using two pass mapping via STAR version 2.5.3a (alignment parameters alignIntronMin=20; alignIntronMax=1000000; outFilterMismatchNmax=999; outFilterMismatchNoverLmax=0.05; outFilterType=BySJout; outFilterMultimapNmax=20; alignSJoverhangMin=8; alignSJDBoverhangMin=1; alignMatesGapMax=1000000) (Dobin et al., Bioinformatics (2012) 29(1):15-21). Genomic alignments were converted to transcriptome alignments based on reference transcript annotations from the Human GENCODE Gene Set release 24 (Harrow et al., Genome Res. (2012) 22(9): 1760-1774). Using unique and multimapped transcriptomic alignments, gene-level abundance estimates were computed using RSEM version 1.3.0 (Li and Dewey, BMC Bioinformatics (2011) 12:323) in a strand-aware manner, and including confidence interval sampling calculations, to arrive at posterior mean estimates (PME) of abundances (counts and normalized FPKM—fragments per kilobase of exon per million mapped fragments) from the underlying Bayesian model. Standard QC were applied (read integrity, mapping statistics, library complexity, fragment bias) to remove unsatisfactory samples.

SLC37A4 = assay: RNA-seq of SLC37A4 expression in compound-treated primary human hepatocytes
Protocol: as §1, §2, §3, §4, §5, §6, §7

CPOX = assay: RNA-seq of CPOX expression in compound-treated primary human hepatocytes
Protocol: as §1, §2, §3, §4, §5, §6
(§8) Standard QC were applied (read integrity, mapping statistics, library complexity, fragment bias) to remove unsatisfactory samples. […] Log 2 fold change and significance values were computed using PME count data (with replicates explicitly modeled versus pan-experiment controls), median ratio normalized, using maximum likelihood estimation rather than maximum a posteriori, and disabling the use of Cook's distance cutoff when determining acceptable adjusted p-values. […] RNA-seq signals were also normalized by read depth and visualized using the UCSC browser.
(§9) To identify small molecules that modulate target gene expression, primary human hepatocytes were prepared as a monoculture, and at least one small molecule compound was applied to the cells.
(§10) RNA-seq was performed to determine the effects of the compounds on the expression of the target genes in hepatocytes. Fold change was calculated by dividing the level of expression in the cell system that had been perturbed by the level of expression in an unperturbed system. Changes in expression having a p-value ≤0.05 were considered significant.
Significance was defined as an FPKM ≥0.5 a log 2(fold change) ≥0.3, and a q-value of ≤0.05.

UGT1A1 = assay: RNA-seq of UGT1A1 expression in compound-treated primary human hepatocytes
How it was run: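 Cryopreserved primary human hepatocytes from three donors were plated in 24-well format, then treated with compound diluted from 1000× stocks in serum-free maintenance medium for about 16–18 h. Poly(A) RNA-seq log2 fold change was computed against vehicle/pan-experiment controls. Significance required FPKM ≥1, log2FC ≥0.5 and q ≤0.05.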

FN1 = assay: RNA-seq of FN1 expression in compound-treated primary human hepatocytes; conditions: perturbed vs unperturbed, significance FPKM ≥1, log 2(fold change) ≥0.5, q-value ≤0.05
Protocol: as §1, §2, §3, §4, §5, §6, §7

ANGPTL3 = assay: RNA-seq of ANGPTL3 expression in compound-treated primary human hepatocytes; conditions: additional compounds (Table 13), linear fold change
How it was run: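 Cryopreserved primary human hepatocytes from three donors, plated at 375,000 cells/well, switched to complete or modified maintenance medium, then dosed with compound (stocks at 1000× final) for about 18 h. Poly(A) mRNA was sequenced directionally, mapped to GRCh38 with STAR, and gene-level abundance (counts, FPKM) estimated with RSEM against GENCODE 24.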

SERPINC1 mRNA = assay: Quantitative PCR of SERPINC1 mRNA in primary human hepatocytes (Lonza Hu4282) treated with compounds; conditions: 72 h treatment, HU4282 primary human hepatocytes, relative to DMSO control (FIG. 7)
MECP2 mRNA [1] = assay: MECP2 mRNA in stellate cells; conditions: average fold change
MECP2 mRNA [2] = assay: MECP2 mRNA in primary human hepatocytes (donor 1, donor 2); conditions: human hepatocytes donor-2, average fold change
Protocol: as §1, §2, §3
Samples were amplified using Taqman probes from ThermoFisher.

LECT2 = assay: RNA-seq of LECT2 expression in compound-treated primary human hepatocytes
Protocol: as §1, §2, §3, §4, §5, §6, §8, §9, §10
Significance was defined as an FPKM ≥1, a log 2(fold change) ≥0.5, and a q-value of ≤0.05 for all targets except for CPOX.

CC1OC2(CS1)CN1CCC2CC1 (stereo not shown) [CPD341_Cevimeline, Cevimeline] was tested, and the mrna remaining at 10 µM (APOL1; RNAseq, 10 uM dose (Table 20)) was 65.5%.
CC[C@@H](CO)NC(=O)[C@@H]1C=C2c3cccc4[nH]cc(c34)C[C@H]2N(C)C1 [CPD388_Methylergonovine, Methylergonovine] gave a mrna remaining at 10 µM (APOL1) of 64.2%.
In the case of Clc1ccc(C(c2ccccc2Cl)C(Cl)Cl)cc1 (stereo not shown) [CPD446_Mitotane, Mitotane], the mrna remaining at 10 µM (APOL1; RNAseq, 10 uM dose (Table 20)) is reported as 65.5%.
In the case of C[C@]12C=CC(=O)C=C1CC[C@@H]1[C@@H]2[C@@H](O)C[C@@]2(C)[C@H]1CC[C@]2(O)C(=O)CO [CPD447_Prednisolone, Prednisolone], the mrna remaining at 10 µM (APOL1; RNAseq, 10 uM dose (Table 20)) is reported as 65.5%.
Compound CC(C)C[C@H](NC(=O)[C@H](Cc1ccccc1)NC(=O)c1cnccn1)B(O)O [CPD569_Bortezomib (PS-341), Bortezomib] has a mrna remaining at 10 µM (APOL1; RNAseq, 10 uM dose (Table 20)) of 63.7%.
In the case of [Cl][Co][Cl] [Cobalt chloride], the “SLC37A4 Fold Change (Log2)” value (SLC37A4) is reported as 1.09 Log2 and the “CPOX Fold change (Log2)” value (CPOX) is reported as 0.49 Log2.
C[C@]12C[C@H](O)[C@H]3[C@@H](CCC4=CC(=O)CC[C@@]43C)[C@@H]1CC[C@@H]2C(=O)CO [Corticosterone] was tested, and the “SLC37A4 Fold Change (Log2)” value (SLC37A4) was 0.73 Log2, the “CPOX Fold change (Log2)” value (CPOX; RNA-seq, primary human hepatocytes, significance FPKM ≥0.5, log 2(fold change) ≥0.3, q-value ≤0.05) was 0.36 Log2 and the “UGT1A1 Fold Change (Log2)” value (UGT1A1) was 0.86 Log2.
In the case of C[C@@H](Oc1cc(-c2cnn(C3CCNCC3)c2)cnc1N)c1c(Cl)ccc(F)c1Cl [Crizotinib], the “FN1 Fold Change (Log2)” value (FN1) is reported as −1.45 Log2, the “APOL1 Fold Change (Log2)” value (APOL1; RNA-seq, primary human hepatocytes) is reported as −0.56 Log2 and the “UGT1A1 Fold Change (Log2)” value (UGT1A1) is reported as 1.18 Log2.
With C[C@@H]1C[C@H]2[C@@H]3CCC4=CC(=O)C=C[C@]4(C)[C@@]3(F)[C@@H](O)C[C@]2(C)[C@@]1(O)C(=O)CO [Dexamethasone] the “SLC37A4 Fold Change (Log2)” value (SLC37A4) was 0.66 Log2.
O=C1NC(=O)/C(=C/c2ccc3nccc(-c4ccncc4)c3c2)S1 [GSK1059615] was tested, and the “ANGPTL3-LINEAR FOLD CHANGE” value (ANGPTL3) was 0.1856 and the “APOL mRNA linear fold change” value (APOL1; RNAseq, 10 uM dose (Table 20)) was 0.5105.
In the case of COc1ccc(-c2cc3c(C)nc(N)nc3n([C@H]3CC[C@H](OCCO)CC3)c2=O)cn1 [PF-04691502], the “SERPINC1 mRNA change in response to compound” value (SERPINC1 mRNA) is reported as “dose dependent upregulation”, the “Stellate MECP2 (Avg_FC) 1 uM” value (MECP2 mRNA [1]; compound 1 uM) is reported as 1.27 and the “Stellate MECP2 (Avg_FC) 10 uM” value (MECP2 mRNA [1]; compound 10 uM) is reported as 2.78. The “ANGPTL3-LINEAR FOLD CHANGE” value (ANGPTL3) was 0.4506, the “APOL mRNA linear fold change” value (APOL1; RNAseq, 10 uM dose (Table 20)) was 0.5141 and the “Human hep donor-2 MECP2 (Avg_FC) 1 uM” value (MECP2 mRNA [2]; compound 1 uM) was 1.13. The “Human hep donor-2 MECP2 (Avg_FC) 10 uM” value (MECP2 mRNA [2]; compound 10 uM) was 1.88.
For COc1cc(Nc2ncc(F)c(Nc3ccc4c(n3)N(COP(=O)(O)O)C(=O)C(C)(C)O4)n2)cc(OC)c1OC [R788 (fostamatinib disodium hexahydrate), fostamatinib disodium hexahydrate], the “SLC37A4 Fold Change (Log2)” value (SLC37A4) was 0.74 Log2 and the “UGT1A1 Fold Change (Log2)” value (UGT1A1) was 0.85 Log2.
CN[C@H]1CC[C@@H](c2ccc(Cl)c(Cl)c2)c2ccccc21 [Sertraline HCl] was tested, and the “ANGPTL3-LINEAR FOLD CHANGE” value (ANGPTL3) was 0.3816 and the mrna remaining at 10 µM (APOL1; RNAseq, 10 uM dose (Table 20)) was 64.6%.
CCN(CC)CCNC(=O)c1c(C)[nH]c(/C=C2\C(=O)Nc3ccc(F)cc32)c1C [Sunitinib] was tested, and the “ANGPTL3-LINEAR FOLD CHANGE” value (ANGPTL3) was 0.3035 and the mrna remaining at 10 µM (APOL1; RNAseq, 10 uM dose (Table 20)) was 62%.
With C[C@]12C=CC(=O)C=C1CC[C@@H]1[C@@H]2C(=O)C[C@@]2(C)[C@H]1CC[C@]2(O)C(=O)CO [prednisone] the “SLC37A4 Fold Change (Log2)” value (SLC37A4) was 1.18 Log2, the “CPOX Fold change (Log2)” value (CPOX) was 0.44 Log2 and the “LECT2 Fold Change (Log2)” value (LECT2) was −0.65 Log2.
With IGF-1: IGF-1R activator the “SLC37A4 Fold Change (Log2)” value (SLC37A4) was 0.60 Log2.
With TNF-a the “SLC37A4 Fold Change (Log2)” value (SLC37A4) was 0.64 Log2.
